The source of these data is paper PMC9737983, “Quantification of Paeoniflorin by Fully Validated LC–MS/MS Method: Its Application to Pharmacokinetic Interaction between Paeoniflorin and Verapamil” (Molecules, 2022).

Like-named read-outs stand apart in the source and are kept apart here.

Data set [1] can be described thus: Stability of PF in SD rat plasma under storage conditions. To be noted: for Freeze-thaw Stability, Measured Conc. / Bench-top Stability, Measured Conc. / Long-term Stability, Measured Conc.: SD rat plasma; for Freeze-thaw Stability, Measured Conc.: 4 cycles at −20 °C; for Freeze-thaw Stability, Measured Conc. / Bench-top Stability, Measured Conc. / Long-term Stability, Measured Conc. / Autosampler Stability, Measured Conc.: n = 6; for Bench-top Stability, Measured Conc.: room temperature for 16 h; for Long-term Stability, Measured Conc.: −20 °C for 90 days; for Autosampler Stability, Measured Conc.: extracted SD rat plasma, 10 °C for 72 h. The format is in vitro ADME. The procedure: Stability in the plasma was tested by comparing the two-level QC samples (LQC and HQC) in sextuplicate injections to theoretical concentrations.
The stability of PF in rat plasma was investigated by analyzing QC samples at […]. Long-term stability was tested at −20 °C for at least 30 days; short-term stability was tested at room temperature for at least 6 h; the post-preparative stability test was conducted at 10 °C for 72 […] The determined concentrations should be within ±15% of the nominal concentrations.

The nature of data set [2]: Pharmacokinetic study in male SD rats (intravenous, oral, oral co-administration with verapamil). The class given is in vivo, Sprague–Dawley rats. Conditions: for MRT inf: read-out: MRT0–∞; for Vd/F: read-out: Vz/F. As for the experimental part: The animal experiment was approved by the Experimental Animal Ethics Committee of Shanghai University of Traditional Chinese Medicine (the Ethics Number: PZSHUTCM201016015). After 7 days of freely feeding the animals to acclimation, the rats were randomly divided into five groups, including the following: PF at an intravenous dose of 2 mg/kg and intragastric administrations of 5 mg/kg, 10 mg/kg, and 20 mg/kg; PF combined with verapamil at doses of 20 mg/kg and 50 mg/kg, respectively. All groups of PF or PF combined with verapamil were dissolved in saline to be completely dissolved or suspended. Blood samples were collected into EDTA−2K anti-coagulant tubes at projected times (0.083, 0.25, 0.5, 1, 2, 4, and 6 h post-dose) and then immediately centrifuged at 5500 rpm at 4 °C for 10 min to obtain the supernatant. The plasma samples were stored at −20 °C prior to analysis.
The plasma drug concentration of the PF was quantitated, according to the calibration curve, by the ratio of the analyte-to-IS peak areas obtained for each sample. Pharmacokinetic parameters, such as elimination half-life (T1/2), the area under the concentration–time curve from time zero to infinity (AUC0–∞), total body clearance (CL), and volume of distribution (Vz), were analyzed by the non-compartment model using WinNonlin software (Version 8.2). Subsequently, the main pharmacokinetic parameters were analyzed by an independent sample t-test. The oral absolute bioavailability was calculated as prescribed by the following equation: F (%) = (AUCp.o. × Dosei.v.)/(AUCi.v. × Dosep.o.) × 100%.

Data set [3] relates to Caco-2 cell. To be noted: Caco-2 monolayer cell; cited from earlier work.
Data set [4] deals with Caco−2 cells. Description: Caco-2 Transwell transport of PF with and without verapamil. The class given is in vitro ADME. To be noted: with/without verapamil, p < 0.05. As for the experimental part: (§1) The Caco−2 cells were purchased from ATCC (Manassas, VA, USA) and cultured in a DMEM high-glucose medium with 15% FBS, 1% NEAA, and 100 U/mL penicillin and streptomycin. A total of 1.25 × 10^5 cells/cm^2 were seeded into […] (PET) in 96-well Falcon insert systems for 21–28 days to obtain a confluent cell monolayer. The test compounds were diluted with the transport buffer (HBSS with BSA) obtained from a 10 mM stock solution to a concentration of 10 µM and applied to the apical or basolateral sides of the cell monolayer. The permeation of the test compounds from A to B directions or B to A directions was determined in duplicate over a 120-min incubation period at 37 °C and 5% CO2 with a relative humidity of 95%. In addition, the efflux ratio of each compound was also determined. Test and reference compounds were quantified by LC-MS/MS analysis based on the peak area ratio of analyte/IS. The apparent permeability coefficient, Papp (cm/s), was calculated using the following equation:Papp = (dCr/dt) × Vr/(A × C0) where dCr/dt is the cumulative concentration of the compound in the receiver chamber as a function of time (S); Vr is the solution volume in the receiver chamber (0.1 mL on the apical side and 0.25 mL on the basolateral side); A is the surface area for the transport, i.e., 0.0804 cm^2 for the area of the monolayer and C0 is the initial concentration in the donor chamber. The efflux ratio was calculated using the following equation:Efflux Ratio = Papp BA/Papp AB where Papp BA is the apparent permeability coefficient obtained from the BL to AP sides (cm/s), and Papp AB is the apparent permeability coefficient obtained from the AP to BL sides (cm/s).
A general note: Passage across Caco-2 layers is used to estimate intestinal permeability.

Assay in data set [5]: as above
To be noted: human, Caco-2, absence of verapamil. The class given is in vitro ADME. The procedure: as §1

Details of data set [6]: method as in PMID 31400507. To be noted: cited from earlier work; for BCS class: classic BCS, everted gut sac assay.
Setting [7] is: male, Sprague-Dawley, rat, plasma, iv, 2 mg/kg, intravenous 2 mg/kg, n = 5.
[8] abbreviates: male, Sprague-Dawley, rat, plasma, po, 5 mg/kg, oral mono-administration 5 mg/kg, n = 5.
[9] abbreviates: male, Sprague-Dawley, rat, plasma, po, 10 mg/kg, oral mono-administration 10 mg/kg, n = 5.
Where [10] appears, read: male, Sprague-Dawley, rat, plasma, po, 20 mg/kg, oral 20 mg/kg co-administration with verapamil (50 mg/kg), n = 5.
Where [11] appears, read: male, Sprague-Dawley, rat, plasma, po, 20 mg/kg, oral mono-administration 20 mg/kg, n = 5.
The mark [12] stands for this setting: male, Sprague-Dawley, rat, plasma, po, 20 mg/kg, range over oral doses 5, 10, 20 mg/kg.
The mark [13] stands for this setting: male, Sprague-Dawley, rat, plasma, intravenous 2 mg/kg, n = 5.
[14] abbreviates: oral 20 mg/kg with verapamil vs alone, p < 0.05.

On to `C[C@@]12C[C@@]3(O)O[C@@H](O1)[C@]1(COC(=O)c4ccccc4)[C@H]3C[C@@]12O[C@@H]1O[C@H](CO)[C@@H](O)[C@H](O)[C@H]1O` [PF, paeoniflorin], for which, in data set [1] (16 h bench-top, 72 h autosampler, 4 freeze-thaw cycles at −20 °C, 90 days at −20 °C), the “stability in SD rat plasma” value is recorded as “stable”. In data set [1] (nominal 3.0 ng/mL), the “Freeze-thaw Stability, Measured Conc.” value stood at 3.14 ± 0.17 ng/mL; the “Bench-top Stability, Measured Conc.” value was determined as 3.01 ± 0.21 ng/mL; the “Long-term Stability, Measured Conc.” value was 2.86 ± 0.20 ng/mL; the “Autosampler Stability, Measured Conc.” value is given as 2.91 ± 0.16 ng/mL. Moreover, in data set [1] (nominal 1500 ng/mL), the “Freeze-thaw Stability, Measured Conc.” value is 1662 ± 44.5 ng/mL; the “Bench-top Stability, Measured Conc.” value is on record as 1538 ± 52.0 ng/mL; the “Long-term Stability, Measured Conc.” value turned out to be 1500 ± 37.4 ng/mL; the “Autosampler Stability, Measured Conc.” value is 1535 ± 54.7 ng/mL. For the same compound, in data set [2] (setting [7]), the area under the curve AUC(0-inf) (as a rule, total exposure, with the tail of the curve extrapolated) amounted to 2.4 ± 0.201 µg·h/mL; the AUC(0-t) (commonly exposure summed from dosing to a finite time, without extrapolation to infinity) was 2.4 ± 0.202 µg·h/mL; the half-life (as a rule, how long it takes for the measured level to halve) was 54 ± 24 min; the MRT inf worked out at 12 min. Also, in data set [2] (male, Sprague-Dawley, rat, plasma, po, 5 mg/kg, oral mono-administration 5 mg/kg vs intravenous 2 mg/kg, read-out: F), the bioavailability came out at 1.3%. In addition, in data set [2] (setting [8]), the AUC(0-inf) was 0.0747 ± 0.0491 µg·h/mL; the AUC(0-t) amounted to 0.0647 ± 0.044 µg·h/mL; the apparent clearance CL/F (in general, the apparent clearance, not corrected for the fraction that reaches the circulation) was 98.2 L/h/kg; the highest concentration (Cmax) (commonly the peak of the concentration-time curve) turned out to be 0.0423 ± 0.0175 µg/mL. Moreover, in data set [2] (setting [8]), the Tmax (commonly the time from dosing to the highest level) came to 30 min, the half-life was 48 ± 24 min, the MRT inf is 78 ± 30 min and the Vd/F was 85.7 ± 21.1 L/kg. In data set [2] (male, Sprague-Dawley, rat, plasma, po, 10 mg/kg, oral mono-administration 10 mg/kg vs intravenous 2 mg/kg, read-out: F), the bioavailability came out at 0.7%. Further, in data set [2] (setting [9]), the AUC(0-inf) was 0.084 ± 0.017 µg·h/mL, the AUC(0-t) came out at 0.0823 ± 0.0184 µg·h/mL, the CL/F is 123 L/h/kg and the Cmax was found to be 0.0634 ± 0.0114 µg/mL. Moreover, in data set [2] (setting [9]), the time to peak (Tmax) came to 30 min, the half-life was 30 ± 6 min, the MRT inf stood at 60 ± 12 min and the Vd/F is 89 ± 7.1 L/kg. For the same compound, in data set [2] (setting [10]), the area under the curve AUC(0-inf) was 0.892 ± 0.487 µg·h/mL, the AUC(0-t) is 0.882 ± 0.491 µg·h/mL, the apparent clearance (CL/F) was 29.2 L/h/kg and the Cmax was determined as 0.464 ± 0.237 µg/mL. In data set [2] (setting [10]), the time to peak (Tmax) was 42 ± 18 min, the half-life was 42 ± 6 min, the MRT inf worked out at 90 ± 6 min and the Vd/F is 31.5 ± 20.3 L/kg. In addition, the bioavailability in data set [2] (male, Sprague-Dawley, rat, plasma, po, 20 mg/kg, oral 20 mg/kg co-administration with verapamil vs intravenous 2 mg/kg, read-out: F) was determined as 3.7%. Further, the bioavailability in data set [2] (male, Sprague-Dawley, rat, plasma, po, 20 mg/kg, oral mono-administration 20 mg/kg vs intravenous 2 mg/kg, read-out: F) worked out at 0.6%. Besides, in data set [2] (setting [11]), the total exposure AUC(0-inf) turned out to be 0.157 ± 0.0653 µg·h/mL, the AUC(0-t) was determined as 0.149 ± 0.0648 µg·h/mL, the CL/F is 145 L/h/kg and the Cmax is 0.1 ± 0.0425 µg/mL. Moreover, in data set [2] (setting [11]), the Tmax was found to be 42 ± 18 min, the half-life was 30 ± 6 min, the MRT inf amounted to 72 ± 6 min and the Vd/F is 112 ± 45.7 L/kg. In data set [2] (setting [12]), the CL/F was 98.2 to 145 L/h/kg, the Tmax fell in the range of 30 to 42 min and the half-life lay within 30 to 48 min. The bioavailability in data set [2] (male, Sprague-Dawley, rat, plasma, po, 20 mg/kg, range over oral doses 5, 10, 20 mg/kg, read-out: absolute oral bioavailability) was 0.6 to 1.3%. For the same compound, in data set [2] (setting [13]), the C0 amounted to 11.2 µg/mL and the clearance was 0.8 L/h/kg. The Vd in data set [2] (male, Sprague-Dawley, rat, plasma, intravenous 2 mg/kg, n = 5, read-out: Vz) was determined as 0.2 L/kg. Besides, the Cmax in data set [2] (oral 5 mg/kg) turned out to be 0.0423 ± 0.0175 µg/mL. In addition, the Cmax in data set [2] (oral 10 mg/kg) was determined as 0.0634 ± 0.0114 µg/mL. In data set [2] (oral 20 mg/kg), the peak concentration (Cmax) amounted to 0.1 ± 0.0425 µg/mL. Also, in data set [2] (oral 20 mg/kg with verapamil vs alone, p < 0.01), the “increase of Cmax, co-administration vs mono-administration” value worked out at 4.6 times. Further, in data set [2] (setting [14]), the “increase of AUC0–t, co-administration vs mono-administration” value turned out to be 5.9 times and the “increase of AUC0–∞, co-administration vs mono-administration” value is on record as 5.7 times. In data set [2] (oral 20 mg/kg with verapamil vs alone, statistical analysis), the “Tmax, T1/2 and MRT0–∞, co-administration vs mono-administration” value is given as “no significant difference”. The efflux rate constant result in data set [3] was “higher than 2”. For the same compound, in data set [4], the P-gp substrate status result is given as “may be a substrate for the P-gp efflux transporter”. Also, the efflux ratio (commonly a quotient of directional permeabilities that is used to spot active efflux) at 120 min, 10 µM in data set [5] is 1.52. In data set [5] (10 µM, 120 min), the apparent permeability from apical to basolateral (Papp A→B) (commonly the apparent permeability from the apical to the basolateral side of a cell layer) at 120 min, 10 µM amounted to 1.7 nm/s and the Papp B→A (as a rule, the apparent permeability from the basolateral to the apical side of a cell layer) at 120 min, 10 µM is 2.6 nm/s. Further, the “solubility and permeability characteristics” value in data set [6] was “high solubility and low permeability”.

Consider `O=c1c(O[C@@H]2O[C@H](CO)[C@H](O)[C@H](O)[C@H]2O)c(-c2ccc(O)c(O)c2)oc2cc(O)cc(O)c12` [hyperoside], for which the BCS class entry in data set [6] is reported as “III/IV”.

As to `COc1cc2c3c(c1OC)-c1ccccc1C[C@H]3N(C)CC2` [nuciferine], the BCS class result in data set [6] was “III/IV”.

With `C[C@@H]1O[C@@H](OC[C@H]2O[C@@H](Oc3c(-c4ccc(O)c(O)c4)oc4cc(O)cc(O)c4c3=O)[C@H](O)[C@@H](O)[C@@H]2O)[C@H](O)[C@H](O)[C@H]1O` [rutin], in data set [6], the BCS class entry is recorded as “III/IV”.

Regarding salvianolic acid B, the BCS class entry in data set [6] is reported as “III/IV”.
